The text below walks through data of ChEMBL document CHEMBL1201862, “PubChem BioAssay data set” (2004).

The structures appear in SMILES notation. Calls of active or inactive are those of the source. A value given as a limit tells only on which side of the number the result lay.

For one assay, the target named is Large T antigen (Simian virus 40, UniProt P03070). The assay is classed as functional, Betapolyomavirus macacae.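 Further: Confirmatory-stage PubChem screen for compounds that inhibit SV40 T antigen.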
For a further assay, the target named is Cytochrome P450 3A4 (Homo sapiens, UniProt P08684). The note with it: Potency.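 Further: confirmatory qHTS run detecting inhibitors and substrates of CYP3A4.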
The next assay concerns the target Nonstructural protein 1 (Influenza A virus, UniProt Q194T2). In kind it is functional, Influenza A virus (A/California/07/2009(H1N1)).
Assay [1] in a line: viability of HCT116 lacking mutant beta-catenin – cell-based, human colon tumor, dose response (AID 1045).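 Further: HCT116 colon tumor cells with beta catenin knocked out; cells exposed to compound for 60 hours.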 The assay is classed as functional.
The target in assay [2] is T1, Fatty acid synthase (Homo sapiens, UniProt P49327). Kind of assay: inhibition of human FAS-TE enzyme activity – biochemical, endpoint fluorescence intensity, uHTS hits, dose response (AID 624327).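 Further: fluorescence from hydrolysis of an O-methyl fluorescein acyl ester substrate by the enzyme.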 The assay is classed as functional.
A short description of assay [3]: viability of PTEN-deleted HCT116 cells – cell-based, HCT116 PTEN knockout, dose response (AID 1047).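 Further: HCT116 colon tumor cells with PTEN knocked out; cells exposed to compound for 60 hours before readout; potency for loss of cell viability measured by luminescence.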 The assay is classed as functional.
For assay [4], the target named is T1, Fatty acid synthase. Kind of assay: inhibition of human FAS-TE enzyme activity – biochemical, kinetic fluorescence intensity, dose response (AID 624326).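 Further: rate of fluorescence rise from hydrolysis of a fluorogenic O-methyl fluorescein ester substrate.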 In kind it is functional.
The next assay relates to HEK293. Kind of assay: EBV LMP1 TES2 canonical NF-kB signalling blockers – cell-based, HEK293, luciferase, cherry-pick, dose response (AID 588343). The note with it: Homo sapiens. In kind it is functional.
A short description of assay [5]: NIH-3T3 fibroblast cytotoxicity, dose response, cytotoxicity control, cell-based, fluorescence, Alamar Blue, secondary assay (AID 2327).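 Further: NIH-3T3 mouse fibroblasts cultured with fluconazole at 8 µg/mL.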 The assay is classed as functional.
The target in assay [6] is T2, Microphthalmia-associated transcription factor (Homo sapiens, UniProt O75030).
T2 sequence (O75030 whole entry): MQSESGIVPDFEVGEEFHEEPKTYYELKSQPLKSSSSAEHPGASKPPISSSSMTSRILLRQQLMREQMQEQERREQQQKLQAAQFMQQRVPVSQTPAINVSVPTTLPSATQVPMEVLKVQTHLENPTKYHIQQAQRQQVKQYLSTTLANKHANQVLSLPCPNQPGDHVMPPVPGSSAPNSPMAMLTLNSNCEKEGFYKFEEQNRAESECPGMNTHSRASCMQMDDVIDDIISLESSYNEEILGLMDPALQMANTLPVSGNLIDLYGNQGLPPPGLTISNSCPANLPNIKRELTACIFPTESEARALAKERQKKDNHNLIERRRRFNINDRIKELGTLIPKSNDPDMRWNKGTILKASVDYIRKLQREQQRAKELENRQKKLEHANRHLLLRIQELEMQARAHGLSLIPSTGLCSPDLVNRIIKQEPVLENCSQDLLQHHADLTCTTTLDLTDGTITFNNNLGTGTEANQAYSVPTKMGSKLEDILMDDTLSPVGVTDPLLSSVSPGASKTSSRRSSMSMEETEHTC
Kind of assay: reducers of TRPM1 reporter luminescence, concentration series – cell-based, SK-MEL-5, cherry-picked, set 3, MITF inhibitor project, dose response (AID 493073).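 Further: SK-MEL-5 melanoma cells with luciferase driven by the MITF target TRPM1 promoter.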 The assay is classed as functional.

Assay [7] can be described thus: fluconazole-exposed Candida albicans growth modulators – fluorescence, retest, confirmation (AID 2467). In kind it is functional, cell-based.
The next assay deals with INS1. Kind of assay: INS-1E survival protection against cytokine death – cell-based, luminescence, retest, dose response (AID 449756).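 Further: cell death triggered by IL-1 beta plus TNF-alpha plus IFN-gamma mixture; protective hits raise ATP signal compared with cytokine alone wells.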 The assay is classed as functional. The note with it: Rattus norvegicus.
Assay [8] can be described thus: reduction of Shn3 3'UTR-driven luciferase in osteoblasts – cell-based, Clone20 osteoblasts, firefly luciferase, cherry-picked, dose response (AID 624132).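 Further: firefly luciferase luminescence from reporter carrying the Shn3 3'UTR in osteoblasts.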 The assay is classed as functional.
Assay [9] in a line: non-specific 3'UTR reporter inhibition in Clone20-Shn3RL – cell-based, Renilla luciferase, cherry-picked, counter-screen for Shn3 inhibitor project, dose response (AID 624133). The assay is classed as functional.
Assay [10] concerns the target T3, Polyadenylate-binding protein 1 (Homo sapiens, UniProt P11940). Kind of assay: MLLE domain peptide-binding blockers, IC50 – biochemical, fluorescence polarization, FITC-PAM2 peptide, dose response (AID 602259). The assay is classed as functional. The note with it: read-out: IC50_Mean.
Assay [11] can be described thus: loss of viability in HepG2 cells – cell-based, CellTiter-Glo, cherry-picked, cytotoxicity control for Shn3 inhibitor project, dose response (AID 624134). The assay is classed as functional.
For assay [12], the target named is T4, Heat shock factor protein 1 (Mus musculus, UniProt P38532).
T4 sequence (P38532 whole entry): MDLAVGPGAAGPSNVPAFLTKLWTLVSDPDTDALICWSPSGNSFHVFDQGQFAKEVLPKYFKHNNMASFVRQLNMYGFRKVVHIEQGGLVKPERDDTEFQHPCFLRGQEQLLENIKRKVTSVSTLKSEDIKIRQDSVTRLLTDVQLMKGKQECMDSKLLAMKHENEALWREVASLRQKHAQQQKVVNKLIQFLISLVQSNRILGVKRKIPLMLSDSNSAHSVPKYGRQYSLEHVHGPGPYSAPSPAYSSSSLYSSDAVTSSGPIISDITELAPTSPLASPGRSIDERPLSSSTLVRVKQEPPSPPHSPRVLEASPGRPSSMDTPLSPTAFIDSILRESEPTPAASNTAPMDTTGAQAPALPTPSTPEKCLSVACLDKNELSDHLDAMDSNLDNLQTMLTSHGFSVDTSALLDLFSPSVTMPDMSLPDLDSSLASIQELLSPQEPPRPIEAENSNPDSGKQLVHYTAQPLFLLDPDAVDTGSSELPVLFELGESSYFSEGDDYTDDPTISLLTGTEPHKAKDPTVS
Kind of assay: enhancement of HSF1-driven luciferase signal – cell-based, NIH3T3, luminescence, dose retest, confirmation (AID 435004).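 Further: stress induced by proteasome inhibitor MG132 added 30 min after compound; luciferase reporter driven by HSF1 response element in NIH3T3 cells; actives raise luminescence as potentiators of the MG132 stress response.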 The assay is classed as functional.

The target in assay [13] is T3, Polyadenylate-binding protein 1. Kind of assay: MLLE binding blockers, Cy5 peptide tracer – biochemical, fluorescence polarization, Cy5-PAM2 peptide, secondary, miRNA deadenylation inhibitor project, dose response (AID 602260). In kind it is functional. The note with it: read-out: IC50_Mean.
The subject of a further assay is P388/ADR. Kind of assay: cells. The assay is classed as functional. The note with it: Mus musculus.
The test system of a further assay is SN12K1. Kind of assay: cells. In kind it is functional. The conditions noted are these: Homo sapiens.
The subject of a further assay is P388. Kind of assay: cells. The note with it: Mus musculus. The assay is classed as functional.
Assay [14] can be described thus: toxicity to human hepatoma HepG2 cells – cell-based, cherry-picked samples, cytotoxicity control, dose response (AID 1159577). The assay is classed as functional.
Assay [15] can be described thus: P. falciparum Dd2 growth inhibitors, dose response, SYBR Green, cherry-picked samples (AID 1159567). In kind it is functional, cell-based.

Sequence of Nonstructural protein 1 (Q194T2 whole entry): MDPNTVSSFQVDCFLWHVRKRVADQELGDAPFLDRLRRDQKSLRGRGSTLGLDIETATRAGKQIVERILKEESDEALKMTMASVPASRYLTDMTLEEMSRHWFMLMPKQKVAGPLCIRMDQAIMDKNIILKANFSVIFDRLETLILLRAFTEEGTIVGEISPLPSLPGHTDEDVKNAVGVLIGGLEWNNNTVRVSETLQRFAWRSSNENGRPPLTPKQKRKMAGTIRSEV
T1 sequence (P49327 whole entry): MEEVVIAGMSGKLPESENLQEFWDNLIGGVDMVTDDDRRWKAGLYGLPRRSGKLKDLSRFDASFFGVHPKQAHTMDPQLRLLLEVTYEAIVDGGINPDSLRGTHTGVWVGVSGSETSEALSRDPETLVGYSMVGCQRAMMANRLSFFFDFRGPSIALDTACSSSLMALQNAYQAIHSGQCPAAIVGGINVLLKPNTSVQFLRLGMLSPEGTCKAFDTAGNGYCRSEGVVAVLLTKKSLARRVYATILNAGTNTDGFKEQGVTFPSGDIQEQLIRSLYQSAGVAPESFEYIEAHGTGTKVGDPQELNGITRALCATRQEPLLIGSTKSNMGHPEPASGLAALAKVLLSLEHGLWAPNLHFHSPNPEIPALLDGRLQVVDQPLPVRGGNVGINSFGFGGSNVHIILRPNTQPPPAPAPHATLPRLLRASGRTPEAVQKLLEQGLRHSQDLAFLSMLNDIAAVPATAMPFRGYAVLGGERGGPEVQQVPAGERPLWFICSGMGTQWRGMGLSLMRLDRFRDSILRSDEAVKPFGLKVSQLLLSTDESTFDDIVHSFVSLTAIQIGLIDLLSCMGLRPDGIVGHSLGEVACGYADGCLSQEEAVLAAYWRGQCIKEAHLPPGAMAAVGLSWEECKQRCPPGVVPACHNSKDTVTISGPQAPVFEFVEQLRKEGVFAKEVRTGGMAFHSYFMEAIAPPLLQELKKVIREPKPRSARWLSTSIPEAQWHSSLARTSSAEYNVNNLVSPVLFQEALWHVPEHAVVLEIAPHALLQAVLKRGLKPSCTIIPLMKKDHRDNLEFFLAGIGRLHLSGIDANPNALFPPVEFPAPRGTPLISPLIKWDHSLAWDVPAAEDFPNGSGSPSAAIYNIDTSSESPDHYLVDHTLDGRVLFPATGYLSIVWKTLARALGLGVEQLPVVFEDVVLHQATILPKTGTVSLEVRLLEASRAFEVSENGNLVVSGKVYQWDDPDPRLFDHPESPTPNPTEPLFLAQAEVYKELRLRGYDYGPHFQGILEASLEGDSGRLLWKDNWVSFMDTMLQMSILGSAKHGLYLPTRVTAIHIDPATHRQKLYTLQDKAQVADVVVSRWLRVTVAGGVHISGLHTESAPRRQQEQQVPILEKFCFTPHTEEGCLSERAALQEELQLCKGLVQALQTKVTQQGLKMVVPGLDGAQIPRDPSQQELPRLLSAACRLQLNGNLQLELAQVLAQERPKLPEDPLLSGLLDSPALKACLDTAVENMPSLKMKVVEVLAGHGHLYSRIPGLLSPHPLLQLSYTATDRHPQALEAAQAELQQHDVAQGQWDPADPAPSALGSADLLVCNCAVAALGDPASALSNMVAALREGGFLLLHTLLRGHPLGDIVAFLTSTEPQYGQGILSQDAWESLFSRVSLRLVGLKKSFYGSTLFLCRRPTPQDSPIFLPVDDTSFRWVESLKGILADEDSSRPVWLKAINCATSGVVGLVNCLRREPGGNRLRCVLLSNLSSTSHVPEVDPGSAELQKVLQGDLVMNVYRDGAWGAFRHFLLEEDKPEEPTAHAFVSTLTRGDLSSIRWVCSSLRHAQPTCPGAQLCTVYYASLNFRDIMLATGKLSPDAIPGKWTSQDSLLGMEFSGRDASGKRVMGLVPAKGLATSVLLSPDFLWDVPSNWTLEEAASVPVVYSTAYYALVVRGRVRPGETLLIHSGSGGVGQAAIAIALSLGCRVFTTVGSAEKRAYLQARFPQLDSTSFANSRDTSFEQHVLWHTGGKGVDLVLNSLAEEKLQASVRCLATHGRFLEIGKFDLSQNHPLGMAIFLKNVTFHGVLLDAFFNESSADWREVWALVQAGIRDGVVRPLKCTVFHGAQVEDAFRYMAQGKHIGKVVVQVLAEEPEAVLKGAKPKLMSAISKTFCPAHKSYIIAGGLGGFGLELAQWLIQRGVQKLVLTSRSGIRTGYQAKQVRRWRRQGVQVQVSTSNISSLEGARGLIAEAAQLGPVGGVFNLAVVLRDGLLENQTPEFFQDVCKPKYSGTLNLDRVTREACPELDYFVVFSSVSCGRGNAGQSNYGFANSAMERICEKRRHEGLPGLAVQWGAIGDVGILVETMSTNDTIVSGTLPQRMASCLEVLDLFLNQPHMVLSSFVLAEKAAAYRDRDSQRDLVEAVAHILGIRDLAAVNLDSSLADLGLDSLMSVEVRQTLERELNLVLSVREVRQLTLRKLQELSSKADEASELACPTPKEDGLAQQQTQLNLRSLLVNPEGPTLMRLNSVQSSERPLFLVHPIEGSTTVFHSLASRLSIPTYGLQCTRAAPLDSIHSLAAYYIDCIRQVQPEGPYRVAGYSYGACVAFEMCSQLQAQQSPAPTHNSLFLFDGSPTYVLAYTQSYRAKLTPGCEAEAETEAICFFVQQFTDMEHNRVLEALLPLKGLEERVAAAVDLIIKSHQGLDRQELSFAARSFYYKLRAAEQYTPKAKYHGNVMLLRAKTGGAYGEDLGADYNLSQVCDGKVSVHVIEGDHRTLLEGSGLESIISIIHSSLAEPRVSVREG
Sequence of Cytochrome P450 3A4 (P08684 whole entry): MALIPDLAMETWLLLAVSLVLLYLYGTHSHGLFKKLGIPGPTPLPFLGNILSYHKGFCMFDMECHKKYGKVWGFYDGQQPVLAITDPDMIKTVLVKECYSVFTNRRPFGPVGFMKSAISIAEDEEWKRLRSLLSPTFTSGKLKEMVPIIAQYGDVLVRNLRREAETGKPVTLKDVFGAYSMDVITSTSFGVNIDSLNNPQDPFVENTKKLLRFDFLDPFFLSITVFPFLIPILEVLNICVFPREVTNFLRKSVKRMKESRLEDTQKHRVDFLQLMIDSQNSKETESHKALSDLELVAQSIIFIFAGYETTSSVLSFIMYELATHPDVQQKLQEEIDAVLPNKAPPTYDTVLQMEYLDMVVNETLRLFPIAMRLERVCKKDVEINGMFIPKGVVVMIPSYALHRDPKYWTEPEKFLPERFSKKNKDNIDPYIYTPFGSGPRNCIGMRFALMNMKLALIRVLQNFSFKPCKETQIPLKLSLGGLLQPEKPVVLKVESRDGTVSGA
T3 sequence (P11940 whole entry, the tested form may be a part): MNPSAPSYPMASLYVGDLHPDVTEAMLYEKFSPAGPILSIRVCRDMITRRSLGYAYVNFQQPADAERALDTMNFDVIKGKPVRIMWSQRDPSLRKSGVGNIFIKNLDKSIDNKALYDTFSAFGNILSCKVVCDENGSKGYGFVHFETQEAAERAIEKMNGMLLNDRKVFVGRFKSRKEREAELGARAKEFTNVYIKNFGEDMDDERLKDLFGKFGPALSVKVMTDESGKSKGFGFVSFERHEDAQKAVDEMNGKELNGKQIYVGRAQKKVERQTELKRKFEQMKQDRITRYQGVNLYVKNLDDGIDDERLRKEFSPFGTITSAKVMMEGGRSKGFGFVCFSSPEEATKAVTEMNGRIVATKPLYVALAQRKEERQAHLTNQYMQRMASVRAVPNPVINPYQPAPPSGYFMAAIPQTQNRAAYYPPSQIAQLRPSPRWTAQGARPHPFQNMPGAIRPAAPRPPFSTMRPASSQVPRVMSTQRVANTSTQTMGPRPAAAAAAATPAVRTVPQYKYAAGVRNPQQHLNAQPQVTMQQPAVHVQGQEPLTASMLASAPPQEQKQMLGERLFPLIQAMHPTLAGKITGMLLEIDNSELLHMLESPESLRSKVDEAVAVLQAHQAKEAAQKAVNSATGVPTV
Sequence of Large T antigen (P03070 whole entry): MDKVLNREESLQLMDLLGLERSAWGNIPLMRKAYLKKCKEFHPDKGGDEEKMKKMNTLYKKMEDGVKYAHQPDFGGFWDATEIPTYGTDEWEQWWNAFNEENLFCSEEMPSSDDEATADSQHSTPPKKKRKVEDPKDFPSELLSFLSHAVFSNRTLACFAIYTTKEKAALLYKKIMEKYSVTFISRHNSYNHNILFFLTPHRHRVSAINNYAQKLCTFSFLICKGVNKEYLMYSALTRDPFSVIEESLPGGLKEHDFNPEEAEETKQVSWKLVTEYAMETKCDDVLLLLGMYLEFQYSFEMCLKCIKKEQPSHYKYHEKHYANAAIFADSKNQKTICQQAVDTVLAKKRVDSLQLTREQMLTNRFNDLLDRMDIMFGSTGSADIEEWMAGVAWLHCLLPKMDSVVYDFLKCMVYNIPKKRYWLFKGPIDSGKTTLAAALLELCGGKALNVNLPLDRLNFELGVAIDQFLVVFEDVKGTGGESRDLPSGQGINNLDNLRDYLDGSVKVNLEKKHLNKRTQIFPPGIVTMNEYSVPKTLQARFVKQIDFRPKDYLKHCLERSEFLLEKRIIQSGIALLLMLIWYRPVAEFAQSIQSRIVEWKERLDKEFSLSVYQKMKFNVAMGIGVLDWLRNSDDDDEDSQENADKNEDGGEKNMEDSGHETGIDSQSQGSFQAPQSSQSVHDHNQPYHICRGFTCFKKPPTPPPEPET

For `Cc1nnc(NN/C=C2\C(=O)N(c3cccc(C(F)(F)F)c3)C(=O)c3ccccc32)nc1O`, the IC50 on Large T antigen is 15.2 µM (active).
Consider `C=CCOC(=O)C(C(C)=O)C(NC(=O)OC)c1ccc2ccccc2c1` (stereo unspecified), for which the AC50 at Cytochrome P450 3A4 was 1 µM (inconclusive).
As for `COc1ccc(Nc2ccc([N+](=O)[O-])c3nonc23)c(OC)c1`, the IC50 at Nonstructural protein 1 is > 100 µM (active).
As for `Cc1ccc([N+](=O)[O-])cc1NC(=O)CN(C(=O)c1ccc(Cl)cc1)C1CCCCC1`, the EC50 in [1] was 209 µM (active); in [3], 43.7 µM (active). Further, the IC50 at Fatty acid synthase [2] is 1.18 µM (active); on Fatty acid synthase [4], 1.24 µM (active).
Consider `O=C(NCCOc1ccccc1)c1ccc2c(c1)OCO2`, for which the AC50 in the assay with HEK293 was 1.62 µM (active).
Take `CC[C@]1(c2cccc(C)c2)C(=O)N(C(=O)OC)N1C(=O)OC`: the IC50 on Fatty acid synthase [2] is 9.04 µM (active); at Fatty acid synthase [4], 8.6 µM (active).
The like results for `CC(C)(C)SCCNC(=O)/C=C/c1cccc([N+](=O)[O-])c1` were, in that order, 4.09 µM (active) and 6.29 µM (active).
For the compound `Cn1c(N)c(C(=O)COC(=O)c2ccnc3ccccc23)c(=O)n(C)c1=O`, on Cytochrome P450 3A4, the AC50 was 15.8 µM (inconclusive).
In the case of `CC(=O)Nc1ccc(NC(=O)c2ccccc2S(=O)(=O)c2ccc([N+](=O)[O-])cc2)cc1`, the IC50 at Fatty acid synthase [2] is 13.8 µM (active); on Fatty acid synthase [4], 15.9 µM (active).
Take `COc1cc(C(=O)Oc2c(CN3CCOCC3)cc(Cl)c3cccnc23)cc(OC)c1OC`: the EC50 in assay [5] is > 160 µM (inactive); in assay [1], 2.31 µM (active); in assay [3] it was 2.71 µM (active); in assay [7], 4.15 µM (active). Further, the AC50 is 7.55 µM (active) in [6] and 4.28 µM (active) in the assay with INS1. The IC50 at Nonstructural protein 1 was 19.9 µM (active).
Regarding `O=C(NCCCCc1ccccc1)C1CC(c2cccc([N+](=O)[O-])c2)=NO1` (stereo unspecified), the results for the IC50 on Fatty acid synthase [2] and at Fatty acid synthase [4] were 3.11 µM (active) and 4.27 µM (active), respectively.
Regarding `CSc1ccccc1C(=O)N1CCC2(CC1)CC(=O)c1ccccc1O2`, in the assay on HEK293, the concentration at half-maximal activity (AC50) was 22.5 µM (active).
Take `Cc1cc(Sc2ncnc(N)c2[N+](=O)[O-])ncn1`: the EC50 is 2.67 µM (inconclusive) in assay [5], 0.58 µM (active) in assay [7] and 12.2 µM (active) in assay [12]. In addition, the AC50 in assay [6] is 7.61 µM (active); in assay [8] it was 5.7 µM (active); in assay [9], 7.76 µM (active); in assay [11] it was 30.1 µM (active). Moreover, the IC50 in assay [10] and in assay [13] was > 66 µM (inactive) throughout.
On to `Nc1cccc(N)c1`, for which the AC50 on Cytochrome P450 3A4 was 31.6 µM (inconclusive).
The same measure, in the same setting: for `CC(C)c1c(O)ccc2c1CCC1[C@@](C)(CO)CCC[C@@]21C` (stereo partly specified) the value was 39.8 µM (inconclusive).
For `O=C(C[n+]1ccccc1)NN=Cc1cc(Br)cc(Br)c1O`, the IC50 on Nonstructural protein 1 was 3.68 µM (active).
On to `Cc1c2ccncc2cc2c1[nH]c1ccccc12`, for which the GI50 in the assay on P388/ADR is 2.93 µM (inactive); in the assay with SN12K1 it was 3.72 µM (inactive); with P388 it was 1.61 µM (inactive).
`CCOc1ccc(/C=N/Nc2cc(N3CCOCC3)ncn2)c(O)c1`: in the assay with HEK293, the AC50 is 15.5 µM (active).
Regarding `Cc1c2ccnc(C(N)=O)c2c(C)c2c1[nH]c1ccccc12`, the GI50 in the assay on P388/ADR is 12.9 µM (inactive); with SN12K1, 5.46 µM (inactive); in the assay on P388 it was 2.9 µM (inactive).
For `CCCCCCCCCCCCCCCCCCOCC(COCCOCC[N+]1(CCCCCC(=O)[O-])CCCC1)Oc1ncccn1` (stereo unspecified) the same measures were 11.2 µM (inactive), 4.12 µM (inactive) and 0.288 µM (active).
The like results for `COC1OC(=O)[C@H]2O[N+]([O-])=C(C)[C@@H]12` (stereo partly specified) were, in that order, > 100 µM (inactive), > 100 µM (inactive) and > 100 µM (inactive).
As to `NC1CCCCC1.O=P(O)(O)C(CSc1ccccc1)P(=O)(O)O`, the GI50 with P388/ADR, in the assay with SN12K1 and with P388 was > 100 µM (inactive) in each case.
Turning to `COc1ccc(C2COc3cc(O)c(O)cc3C2)cc1` (stereo unspecified), the GI50 was 1.19 µM (inactive) in the assay on P388/ADR, 13.8 µM (inactive) in the assay with SN12K1 and 1.67 µM (inactive) in the assay with P388.
Turning to `CCn1c2ccccc2c2cc(/C=N/NC(=O)c3ccncc3)ccc21`, the AC50 in the assay on HEK293 is 1.46 µM (active).
As to `Oc1ccc(/C=N/N2CCN(c3ccccn3)CC2)cc1`, the IC50 on Large T antigen was 42.5 µM (active).
Turning to `COc1ccc2c3c(n(C)c2c1)[C@H](CO)N(C(=O)Nc1ccccc1F)CC31CN(C)C1`, the results for the concentration at half-maximal activity (AC50) in assay [14] and in assay [15] were 18.5 µM (active) and 6.4 µM (active), respectively.
In the case of `CC(C)CC#Cc1ccc2c(c1)O[C@@H](CN(C)Cc1cccc(F)c1)[C@H](C)CN([C@H](C)CO)S2(=O)=O`, the values for the AC50 in assay [14] and in assay [15] were 17.1 µM (active) and 4.19 µM (active), respectively.
`C=CCSSSCC=C` [ALLITRIDIN]: the half-maximal activity concentration (AC50) on Cytochrome P450 3A4 is 39.8 µM (inconclusive).
Turning to `C/C(=C\COc1ccc2ccc(=O)oc2c1)C1=CC(=O)C(C)(C)O1` [GEIPARVARIN], the GI50 in the assay with P388/ADR was 1.44 µM (inactive); in the assay with SN12K1 it was 3.76 µM (inactive); in the assay on P388 it was 1.9 µM (inactive).
